Data as given in patent US10064928B2, “Peptides and combination of peptides for use in immunotherapy against CLL and other cancers” (IMMATICS BIOTECHNOLOGIES GMBH, priority 2015, dated 2018).

Assays:
[1] = test system: CD8+ T cells; test: In vitro T-cell priming assay with aAPCs loaded with peptide/MHC and anti-CD28, multimer readout; format: cell-based, human; details: in vitro immunogenicity, percentage of positive wells; for Wells positive [%]: HLA-A*02 restricted peptides; for wells: healthy HLA-A*02 donors
Description: In order to obtain information regarding the immunogenicity of the TUMAPs of the present invention, the inventors performed investigations using an in vitro T-cell priming assay based on repeated stimulations of CD8+ T cells with artificial antigen presenting cells (aAPCs) loaded with peptide/MHC complexes and anti-CD28 antibody.
In order to perform in vitro stimulations by artificial antigen presenting cells loaded with peptide-MHC complex (pMHC) and anti-CD28 antibody, the inventors first isolated CD8+ T cells from fresh HLA-A*02 leukapheresis products via positive selection using CD8 microbeads (Miltenyi Biotec, Bergisch-Gladbach, Germany) of healthy donors obtained from the University clinics Mannheim, Germany, after informed consent.
PBMCs and isolated CD8+ lymphocytes were incubated in T-cell medium (TCM) until use consisting of RPMI-Glutamax (Invitrogen, Karlsruhe, Germany) supplemented with 10% heat inactivated human AB serum (PAN-Biotech, Aidenbach, Germany), 100 U/ml Penicillin/100 μg/ml Streptomycin (Cambrex, Cologne, Germany), 1 mM sodium pyruvate (CC Pro, Oberdorla, Germany), 20 μg/ml Gentamycin (Cambrex). 2.5 ng/ml IL-7 (PromoCell, Heidelberg, Germany) and 10 U/ml IL-2 (Novartis Pharma, Nürnberg, Germany) were also added to the TCM at this step.
Generation of pMHC/anti-CD28 coated beads, T-cell stimulations and readout was performed in a highly defined in vitro system using four different pMHC molecules per stimulation condition and 8 different pMHC molecules per readout condition.
The purified co-stimulatory mouse IgG2a anti human CD28 Ab 9.3 (Jung et al., 1987) was chemically biotinylated using Sulfo-N-hydroxysuccinimidobiotin as recommended by the manufacturer (Perbio, Bonn, Germany). Beads used were 5.6 μm diameter streptavidin coated polystyrene particles (Bangs Laboratories, Illinois, USA).
800.000 beads/200 μl were coated in 96-well plates in the presence of 4×12.5 ng different biotin-pMHC, washed and 600 ng biotin anti-CD28 were added subsequently in a volume of 200 μl. Stimulations were initiated in 96-well plates by co-incubating […] CD8+ T cells with 2×10^5 washed coated beads in 200 μl TCM supplemented with 5 ng/ml IL-12 (PromoCell) for 3 days at 37° C. Half of the medium was then exchanged by fresh TCM supplemented with 80 U/ml IL-2 and incubating was continued for 4 days at 37° C. This stimulation cycle was performed for a total of three times. For the pMHC multimer readout using 8 different pMHC molecules per condition, a two-dimensional combinatorial coding approach was used as previously described (Andersen et al., 2012) with minor modifications encompassing coupling to 5 different fluorochromes. Finally, multimeric analyses were performed by staining the cells with Live/dead near IR dye (Invitrogen, Karlsruhe, Germany), CD8-FITC antibody clone SK1 (BD, Heidelberg, Germany) and fluorescent pMHC multimers. For analysis, a BD LSRII SORP cytometer equipped with appropriate lasers and filters was used. Peptide specific cells were calculated as percentage of total CD8+ cells. Evaluation of multimeric analysis was done using the FlowJo software (Tree Star, Oreg., USA). In vitro priming of specific multimer+CD8+ lymphocytes was detected by comparing to negative control stimulations.

[2] = molecular target: HLA-A*02:01 (Homo sapiens, UniProt P04439, D140Y/D185E/D98H/E176V/E277Q/G131W/G231S/I119V/I121R/I166T/I218V/L300P/L318F/N151K/N90K/P208A/P217A/Q86G/Q94H/R138H/R169H/T345S); test: MHC binding assay (UV-ligand exchange, beta2m ELISA); details: binding of HLA-class I restricted peptides to HLA-A*02:01, β2m ELISA
How it was run: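 UV-cleavable peptide in HLA monomers exchanged for test peptide by UV irradiation; exchange yield measured by streptavidin-capture ELISA with HRP anti-β2m (TMB, 450 nm) on 100-fold diluted complexes. Quantified against refolded HLA-A*02:01/MLA-001 standards (15-500 ng/ml).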

| Substance | Wells positive [%] [1] | Peptide Exchange (MHC class I binding score, peptide exchange yield) [2] | wells [1] |
| --- | --- | --- | --- |
| 1 (AIPPSFASIFL; listed as Homo sapiens) [compound 1] | “+++” (50%-69% = +++) | “+++” (≥50 = +++) | – |
| 2 (ALHRPDVYL; listed as Homo sapiens) [compound 2] | “+” (<20% = +) | “+++” (≥50 = +++) | – |
| 5 (ALIFKIASA; listed as Homo sapiens) [compound 5] | “+++” (50%-69% = +++) | “+++” (≥50 = +++) | – |
| 17 (ALTKTNLQL; listed as Homo sapiens) [compound 17] | “+” (<20% = +) | “+++” (≥50 = +++) | – |
| 26 (AVLLVLPLV; listed as Homo sapiens) [compound 26] | “+” (<20% = +) | “+++” (≥50 = +++) | – |
| 32 (FIDKFTPPV; listed as Homo sapiens) [compound 32] | “++++” (>=70% = ++++) | “++++” (≥75% = ++++) | – |
| 49 (FLTDLFAQL; listed as Homo sapiens) [compound 49] | “++” (20%-49% = ++) | “++++” (≥75% = ++++) | – |
| 54 (FLYPFPLALF; listed as Homo sapiens) [compound 54] | “+” (<20% = +) | “+++” (≥50 = +++) | – |
| 56 (FVFEAPYTL; listed as Homo sapiens) [compound 56] | “++” (20%-49% = ++) | “+++” (≥50 = +++) | – |
| 57 (GLSEISLRL; listed as Homo sapiens) [compound 57] | “+” (<20% = +) | “++++” (≥75% = ++++) | – |
| 69 (GLHQREIFL; listed as Homo sapiens) [compound 69] | “+” (<20% = +) | “+++” (≥50 = +++) | – |
| 81 (WLVGQEFEL; listed as Homo sapiens) [compound 81] | “+” (<20% = +) | “+++” (≥50 = +++) | – |
| 86 (HLYPGAVTI; listed as Homo sapiens) [compound 86] | “+” (<20% = +) | “+++” (≥50 = +++) | – |
| 96 (ILIDKTSFV; listed as Homo sapiens) [compound 96] | “+” (<20% = +) | “+++” (≥50 = +++) | – |
| 100 (ILNNEVFAI; listed as Homo sapiens) [compound 100] | “++” (20%-49% = ++) | “+++” (≥50 = +++) | – |
| 101 (ILVVIEPLL; listed as Homo sapiens) [compound 101] | “+” (<20% = +) | “++++” (≥75% = ++++) | – |
| 102 (IQDRAVPSL; listed as Homo sapiens) [compound 102] | “+” (<20% = +) | “++” (≥20% = ++) | – |
| 112 (KTLDVDATYEI; listed as Homo sapiens) [compound 112] | “+” (<20% = +) | “+++” (≥50 = +++) | – |
| 114 (LIPEGPPQV; listed as Homo sapiens) [compound 114] | “+” (<20% = +) | “+++” (≥50 = +++) | – |

| Substance | Wells positive [%] [1] | Peptide Exchange (MHC class I binding score, peptide exchange yield) [2] | wells [1] |
| --- | --- | --- | --- |
| 154 (SLLAELHVLTV; listed as Homo sapiens) [compound 154] | “+” (<20% = +) | “++++” (≥75% = ++++) | – |
| 192 (YIQEYLTLL; listed as Homo sapiens) [compound 192] | “+” (<20% = +) | “+++” (≥50 = +++) | – |
| 197 (YLQEVPILTL; listed as Homo sapiens) [compound 197] | “+” (<20% = +) | “++++” (≥75% = ++++) | – |
| 200 (YMFEEVPIVI; listed as Homo sapiens) [compound 200] | “+” (<20% = +) | “++++” (≥75% = ++++) | – |
| 201 (YQLELHGIEL; listed as Homo sapiens) [compound 201] | “+” (<20% = +) | “++++” (≥75% = ++++) | – |
| 202 (YVDDVFLRV; listed as Homo sapiens) [compound 202] | “++” (20%-49% = ++) | “++++” (≥75% = ++++) | – |
| 220 (ALPEILFAKV; listed as Homo sapiens) [compound 220] | “++” (20%-49% = ++) | “+++” (≥50 = +++) | – |
| 240 (ILARDILEI; listed as Homo sapiens) [compound 240] | “+” (<20% = +) | “+++” (≥50 = +++) | – |
| 281 (NLLDDRGMTAL; listed as Homo sapiens) [compound 281] | “+” (<20% = +) | “+++” (≥50 = +++) | – |
| 282 (LLRDGIELV; listed as Homo sapiens) [compound 282] | “++” (20%-49% = ++) | “+++” (≥50 = +++) | – |
| 307 (LLLTKPTEA; listed as Homo sapiens) [compound 307] | “+” (<20% = +) | “+++” (≥50 = +++) | – |
| 320 (TIAPVTVAV; listed as Homo sapiens) [compound 320] | “+” (<20% = +) | “++++” (≥75% = ++++) | – |
| 322 (SLASIHVPL; listed as Homo sapiens) [compound 322] | “+” (<20% = +) | “+++” (≥50 = +++) | – |
| 323 (SLDLFNCEV; listed as Homo sapiens) [compound 323] | “+” (<20% = +) | “++++” (≥75% = ++++) | – |
| 329 (VLMDGSVKL; listed as Homo sapiens) [compound 329] | “+++” (50%-69% = +++) | “++++” (≥75% = ++++) | – |
| 332 (VMIQHVENL; listed as Homo sapiens) [compound 332] | “+” (<20% = +) | “+++” (≥50 = +++) | – |
| 380 (YLDRKLLTL; listed as Homo sapiens) [compound 380] | “++++” (>=70% = ++++) | “+++” (≥50 = +++) | – |
| 427 (LLYDAVHIV; listed as Homo sapiens) [compound 427] | – | – | ++ (20%-49% = ++) |
| 521 (YLYGQTTTYL; listed as Homo sapiens) [compound 521] | – | – | ++ (20%-49% = ++) |
